Experimental data: publication PMC3292467, “Comparison between ^68Ga-bombesin (^68Ga-BZH3) and the cRGD tetramer ^68Ga-RGD4 studies in an experimental nude rat model with a neuroendocrine pancreatic tumor cell line” (EJNMMI Research, 2011)
Where two headings read alike, the source gives them in different places. Square brackets hold non-standard residues; d marks the D form.

What was measured:
[1] = Dynamic PET, tumor uptake (SUV) in AR42J tumor-bearing nude rats; type: in vivo, rat; conditions: Wistar (nude), rat, tumor (AR42J), iv, i.v. 20 to 40 MBq (BZH3, n = 5), 10 to 30 MBq (RGD4, n = 4), nude rats, read-out: SUV (standardized uptake value) in tumor
Description: (§1) Irregular regions of interest were drawn manually.

AR42J tumor [2] = experiment: as above; type: in vivo, rat; conditions: i.v. 20 to 40 MBq (BZH3, n = 5), 10 to 30 MBq (RGD4, n = 4), nude rats
Description: as §1

AR42J tumor [3] = conditions: AR42J tumor-bearing nude rats, n = 5 (BZH3), n = 4 (RGD4); for VB (vessel density, fractional blood volume): dynamic PET 60 min, i.v.
Procedure: The AR42J cell line, derived from a rat exocrine pancreas neuroendocrine tumor, was used. Cells were obtained from the European Collection of Cell Cultures and were grown in RPMI 1640 medium supplemented with 2 mmol/L glutamine and 10% fetal calf serum. Adherent cells were dislodged with trypsin/ethylenediaminetetraacetic acid (0.02%: 0.05%, w/v). For PET-studies, 5 × 10^6 cells in 200 μl RPMI without supplements were inoculated subcutaneously in the right hind leg of Wistar rats.
The study included nine AR 42 J tumor-bearing nude rats. We grouped all rats according to PET tracers (B, ^68Ga-BZH3 and R, ^68Ga-RGD4), used in dynamic PET scanning, as noted in Table 1. Dynamic PET studies were performed for 60 min after the intravenous application of 10 to 30 MBq ^68Ga-RGD4 or 20 to 40 MBq ^68Ga-BZH3, using a 28-frame protocol (ten frames of 30 s, five frames of 60 s, five frames of 120 s, and eight frames of 300 s). Two animals can be examined in parallel per scanning by a homemade injector (Figure 2). A dedicated PET-CT system (Biograph™ mCT, 128 S/X, Siemens Co, Erlangen, Germany) with an axial field of view of 21.6 cm with TrueV, operated in a three-dimensional mode, was used for all animal studies. The system provides the simultaneous acquisition of 369 transverse slices with a slice thickness of 0.6 mm. The animals were positioned in the axial plane of the system to maintain the best resolution in the center of the system. All PET images were attenuation-corrected and an image matrix of 400 × 400 pixels was used for iterative image reconstruction (voxel size 1.565 × 1.565 × 0.6 mm) based on the syngo MI PET/CT 2009C software version. After the end of the dynamic series an ultrahigh resolution CT with 85 mA, 80 kV and a pitch of 0.85 cm was performed for attenuation correction of the acquired dynamic emission data. The reconstructed images were converted to SUV images based on the formula [24]: SUV = Tissue concentration (becquerel per gram)/[injected dose ([…]))/body weight (gram)]. The SUV 55 to 60 min post-injection was used for the assessment of both tracers. The SUV images were used for all further quantitative evaluations.
Dynamic PET data were evaluated using the software package PMOD (provided courtesy of PMOD Technologies Ltd., Zuerich, Switzerland). Areas with enhanced tracer uptake on transaxial, coronal, and sagittal images were evaluated visually. A volume of interest consists of several regions of interest over the target area. Irregular regions of interest were drawn manually. A detailed quantitative evaluation of tracer kinetics requires the use of compartmental modeling. A two-tissue-compartment model was used to evaluate the dynamic studies.
In animals, a partial volume correction must be applied to the data due to the small size of the input and tumor volumes of interest (VOIs). Herein, the recovery coefficient was 0.85 for a diameter of 8 mm and 0.32 for a diameter of 3 mm based on phantom measurements as well as the recent parameter settings used with the reconstruction software. For the input function the mean values of the VOI data obtained from the heart were used. We used a preprocessing tool, which allowed a fit of the input curve by a sum of up to three decaying exponentials. The learning-machine two-tissue-compartment model was used for the fitting and provided five parameters: the transport parameters for tracer into and out of the cell, K1 and k2, the parameters for phosphorylation and dephosphorylation of intracellular tracer, k3 and k4, and the fractional blood volume, also called vessel density (VB), which reflects the amount of blood in the VOI. Following compartment analysis, we calculated the global influx of tracer from the compartment data using the formula: influx = (K1 × k3)/(k2 + k3). […] The model parameters were accepted when K1 - k4 was less than 1 and VB exceeded 0. The unit for the rate constants K1 to k4 was 1/min.

[4] = 3D fused PET-CT images; male rat
Procedure: The study included nine AR 42 J tumor-bearing nude rats. We grouped all rats according to PET tracers (B, ^68Ga-BZH3 and R, ^68Ga-RGD4), used in dynamic PET scanning, as noted in Table 1. Dynamic PET studies were performed for 60 min after the intravenous application of 10 to 30 MBq ^68Ga-RGD4 or 20 to 40 MBq ^68Ga-BZH3, using a 28-frame protocol (ten frames of 30 s, five frames of 60 s, five frames of 120 s, and eight frames of 300 s). Two animals can be examined in parallel per scanning by a homemade injector (Figure 2). A dedicated PET-CT system (Biograph™ mCT, 128 S/X, Siemens Co, Erlangen, Germany) with an axial field of view of 21.6 cm with TrueV, operated in a three-dimensional mode, was used for all animal studies. The system provides the simultaneous acquisition of 369 transverse slices with a slice thickness of 0.6 mm. The animals were positioned in the axial plane of the system to maintain the best resolution in the center of the system. […] The SUV images were used for all further quantitative evaluations.
Dynamic PET data were evaluated using the software package PMOD (provided courtesy of PMOD Technologies Ltd., Zuerich, Switzerland). Areas with enhanced tracer uptake on transaxial, coronal, and sagittal images were evaluated visually. […] A detailed quantitative evaluation of tracer kinetics requires the use of compartmental modeling. […]

ανβ3 = ανβ3 (Homo sapiens, UniProt P05106+P06756); experiment: biochemical
integrin ανβ3, P06756 = molecular target: T1, integrin ανβ3, P06756; experiment: not stated; IC50 of ^68Ga-RGD4 for ανβ3; format, competitor and conditions not told; conditions: remark: other sources report otherwise
T1 chain 1: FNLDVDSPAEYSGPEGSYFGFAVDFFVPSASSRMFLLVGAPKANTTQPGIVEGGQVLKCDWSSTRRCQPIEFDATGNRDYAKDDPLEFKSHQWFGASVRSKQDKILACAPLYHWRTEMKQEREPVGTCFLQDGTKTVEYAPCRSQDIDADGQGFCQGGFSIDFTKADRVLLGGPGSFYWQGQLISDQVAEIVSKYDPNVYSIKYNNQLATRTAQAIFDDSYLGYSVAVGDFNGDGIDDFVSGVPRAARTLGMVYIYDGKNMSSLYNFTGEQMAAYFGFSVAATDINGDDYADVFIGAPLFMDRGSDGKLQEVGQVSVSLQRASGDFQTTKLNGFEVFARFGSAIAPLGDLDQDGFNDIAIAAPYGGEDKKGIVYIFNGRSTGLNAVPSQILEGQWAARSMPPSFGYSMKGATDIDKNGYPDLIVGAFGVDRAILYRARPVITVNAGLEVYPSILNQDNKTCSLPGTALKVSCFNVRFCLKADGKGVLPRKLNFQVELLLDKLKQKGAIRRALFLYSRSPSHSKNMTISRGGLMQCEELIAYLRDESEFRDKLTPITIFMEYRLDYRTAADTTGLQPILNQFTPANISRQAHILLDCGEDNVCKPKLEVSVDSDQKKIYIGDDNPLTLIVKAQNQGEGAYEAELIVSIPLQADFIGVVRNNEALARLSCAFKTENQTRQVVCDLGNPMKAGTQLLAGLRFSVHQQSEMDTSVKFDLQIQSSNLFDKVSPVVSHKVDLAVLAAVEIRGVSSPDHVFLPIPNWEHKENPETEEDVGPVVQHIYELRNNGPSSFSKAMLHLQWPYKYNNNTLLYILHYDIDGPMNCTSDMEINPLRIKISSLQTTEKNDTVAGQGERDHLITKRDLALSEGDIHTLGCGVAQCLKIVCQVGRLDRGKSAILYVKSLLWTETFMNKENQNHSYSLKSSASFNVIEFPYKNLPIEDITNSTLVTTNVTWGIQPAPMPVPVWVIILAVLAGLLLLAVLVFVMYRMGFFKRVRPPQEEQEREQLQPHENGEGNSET
T1 chain 2: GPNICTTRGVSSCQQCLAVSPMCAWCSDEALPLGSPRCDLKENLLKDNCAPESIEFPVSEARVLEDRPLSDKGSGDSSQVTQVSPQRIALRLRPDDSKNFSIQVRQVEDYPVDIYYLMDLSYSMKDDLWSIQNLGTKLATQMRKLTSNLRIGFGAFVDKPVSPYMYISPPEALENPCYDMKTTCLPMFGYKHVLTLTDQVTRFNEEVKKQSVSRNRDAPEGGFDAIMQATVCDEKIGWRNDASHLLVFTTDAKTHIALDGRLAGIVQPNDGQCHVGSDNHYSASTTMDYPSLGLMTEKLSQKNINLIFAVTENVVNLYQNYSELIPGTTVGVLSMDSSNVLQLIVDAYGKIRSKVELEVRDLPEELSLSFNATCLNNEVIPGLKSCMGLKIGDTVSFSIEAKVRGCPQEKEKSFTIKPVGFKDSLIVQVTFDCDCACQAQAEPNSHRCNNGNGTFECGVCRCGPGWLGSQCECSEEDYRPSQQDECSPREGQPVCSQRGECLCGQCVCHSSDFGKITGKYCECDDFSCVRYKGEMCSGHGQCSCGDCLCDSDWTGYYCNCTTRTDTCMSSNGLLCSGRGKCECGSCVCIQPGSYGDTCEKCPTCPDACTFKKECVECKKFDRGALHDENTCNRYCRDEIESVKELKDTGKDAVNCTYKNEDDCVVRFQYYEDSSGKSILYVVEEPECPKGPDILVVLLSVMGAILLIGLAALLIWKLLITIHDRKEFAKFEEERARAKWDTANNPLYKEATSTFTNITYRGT

[5] = median, between tracers P 0.05*

N=C(N)NCCC[C@@H]1NC(=O)[C@H](CCCCNC(=O)COCCOCCNC(=O)CSC2CC(=O)N(CCCC(=O)NCCCC[C@H](NC(=O)CCCN3C(=O)CC(SCC(=O)NCCOCCOCC(=O)NCCCC[C@@H]4NC(=O)[C@@H](Cc5ccccc5)NC(=O)[C@H](CC(=O)O)NC(=O)CNC(=O)[C@H](CCCNC(=N)N)NC4=O)C3=O)C(=O)NCCCC[C@H](NC(=O)[C@H](CCCCNC(=O)CCCN3C(=O)CC(SCC(=O)NCCOCCOCC(=O)NCCCC[C@@H]4NC(=O)[C@@H](Cc5ccccc5)NC(=O)[C@H](CC(=O)O)NC(=O)CNC(=O)[C@H](CCCNC(=N)N)NC4=O)C3=O)NC(=O)CCCN3C(=O)CC(SCC(=O)NCCOCCOCC(=O)NCCCC[C@@H]4NC(=O)[C@@H](Cc5ccccc5)NC(=O)[C@H](CC(=O)O)NC(=O)CNC(=O)[C@H](CCCNC(=N)N)NC4=O)C3=O)C(=O)N[C@@H](CCCCNC(=O)CN3CCN(CC(=O)O)CCN(CC(=O)O)CCN(CC(=O)O)CC3)C(N)=O)C2=O)NC(=O)[C@@H](Cc2ccccc2)NC(=O)[C@H](CC(=O)O)NC(=O)CNC1=O (some centres unmarked) [^68Ga-RGD4, metal not drawn]
SUV ([1]; mean, 55 to 60 min post-injection): 1.02 SUV | SUV ([1]; median, 55 (56) to 60 min post-injection, between tracers P 0.8065): 0.989 SUV | SUV (standardized uptake value) in tumor (AR42J tumor [2]; maximum, 55 to 60 min post-injection): 1.3084 | SUV (standardized uptake value) in tumor (AR42J tumor [2]; median, 55 (56) to 60 min post-injection, between tracers P 0.8065, listed as 68Ga-RGD tetramer): 0.99 | SUV (standardized uptake value) in tumor (AR42J tumor [2]; minimum, 55 to 60 min post-injection): 0.7833 | VB (vessel density, fractional blood volume) (AR42J tumor [3]; maximum): 0.0713 | K1 (transport into the cell; associated with receptor binding) (AR42J tumor [3]; maximum): 0.3195 min⁻¹ | RBP (receptor binding potential) (AR42J tumor [3]; maximum): 0.0514 | k2 (displacement from the receptor) (AR42J tumor [3]; maximum): 0.6152 min⁻¹ | k3 (cellular internalisation) (AR42J tumor [3]; maximum): 0.1352 min⁻¹ | k4 (externalization) (AR42J tumor [3]; maximum): 0.0504 min⁻¹ | VB (vessel density, fractional blood volume) (AR42J tumor [3]; mean): 0.0582 | K1 (transport into the cell; associated with receptor binding) (AR42J tumor [3]; mean): 0.2739 min⁻¹ | RBP (receptor binding potential) (AR42J tumor [3]; mean): 0.0453 | k2 (displacement from the receptor) (AR42J tumor [3]; mean): 0.5386 min⁻¹ | k3 (cellular internalisation) (AR42J tumor [3]; mean): 0.1097 min⁻¹ | k4 (externalization) (AR42J tumor [3]; mean): 0.0443 min⁻¹ | VB (vessel density, fractional blood volume) (AR42J tumor [3]; [5]): 0.0574 | RBP (receptor binding potential) (AR42J tumor [3]; median, between tracers P 0.0275*): 0.0442 | K1 (transport into the cell; associated with receptor binding) (AR42J tumor [3]; [5]): 0.2728 min⁻¹ | k4 (externalization) (AR42J tumor [3]; [5]): 0.0442 min⁻¹ | k2 (displacement from the receptor) (AR42J tumor [3]; median, between tracers P 0.4624): 0.5721 min⁻¹ | k3 (cellular internalisation) (AR42J tumor [3]; median, between tracers P 0.8065): 0.1180 min⁻¹ | VB (vessel density, fractional blood volume) (AR42J tumor [3]; minimum): 0.0468 | K1 (transport into the cell; associated with receptor binding) (AR42J tumor [3]; minimum): 0.2304 min⁻¹ | RBP (receptor binding potential) (AR42J tumor [3]; minimum): 0.0414 | k2 (displacement from the receptor) (AR42J tumor [3]; minimum): 0.3952 min⁻¹ | k3 (cellular internalisation) (AR42J tumor [3]; minimum): 0.0678 min⁻¹ | k4 (externalization) (AR42J tumor [3]; minimum): 0.0382 min⁻¹ | tracer uptake in other sites [4]: heart (exhibit for ^68Ga-RGD4), liver, kidney, urinary bladder, and testicles | IC50 (ανβ3): 4.97 µM

cyclo(RGD[dF]K) (not fully specified (residue 5); also: tetramer on DOTA-Mal4 core, 68Ga on DOTA) [^68Ga-RGD tetramer (^68Ga-labelled DOTA-comprising RGD tetramer)]
IC50 (integrin ανβ3, P06756): 4.97 µM
